Experimental data as given in patent publication US12643903B2, “Bifunctional compounds for degradation of EGFR and related methods of use” (BeiGene, Ltd., priority 2020, dated 2026).

Assays:
EGFR [1] = target: T1, EGFR (Homo sapiens, UniProt P00533, L858R/T790M); test: Cell Degradation 1: EGFR degradation in H1975 cells, HTRF assay; assay type: cell-based; settings: 16 h treatment, EGFR degradation by HTRF
T1 construct: endogenous in cells; host or cells: H1975
Experimental: After 16 h treatment, add 100 μl 1×lysis buffer to each well; seal the plate and incubate 1 hour at room temperature on a plate shaker; Once the cells are lysed, 16 μL of cell lysate are transferred to a PE 384-well HTRF detection plate; 4 μL of pre-mixed HTRF antibodies are added to each well; Cover the plate with a plate sealer, spin 1000 rpm for 1 min, Incubate overnight at room temperature; Read on BMG PheraStar with HTRF protocol (337 nm-665 nm-620 nm).
(§1) The IC50 (DC50) value of a compound can be obtained by fitting the following equation Y=Bottom+(TOP−Bottom)/(1+((IC50/X)^hillslope))
(§2) Wherein, X and Y are known values, and IC50, Hillslope, Top and Bottom are the parameters obtained by fitting with software. Y is the inhibition percentage (calculated from the equation), X is the concentration of the compound; IC50 is the concentration of the compound when the 50% inhibition is reached. The smaller the IC50 value is, the stronger the inhibitory ability of the compound is. Vice versa, the higher the IC50 value is, the weaker the ability the inhibitory ability of the compound is; Hillslope represents the slope of the fitted curve, generally around 1*; Bottom represents the minimum value of the curve obtained by data fitting, which is generally 0%±20%; Top represents the maximum value of the curve obtained by data fitting, which is generally 100%±20%. The experimental data were fitted by calculating and analyzing with Dotmatics data analysis software.

EGFR [2] = target: T2, EGFR (Homo sapiens, UniProt P00533, DEL746-750); test: Cell Degradation 2: EGFR degradation in HCC827 cells, HTRF assay; assay type: cell-based; settings: 16 h treatment, EGFR degradation by HTRF
T2 construct: endogenous in cells; host or cells: HCC827
T2 sequence (P00533 with tags, fused parts or gaps DEL746-750): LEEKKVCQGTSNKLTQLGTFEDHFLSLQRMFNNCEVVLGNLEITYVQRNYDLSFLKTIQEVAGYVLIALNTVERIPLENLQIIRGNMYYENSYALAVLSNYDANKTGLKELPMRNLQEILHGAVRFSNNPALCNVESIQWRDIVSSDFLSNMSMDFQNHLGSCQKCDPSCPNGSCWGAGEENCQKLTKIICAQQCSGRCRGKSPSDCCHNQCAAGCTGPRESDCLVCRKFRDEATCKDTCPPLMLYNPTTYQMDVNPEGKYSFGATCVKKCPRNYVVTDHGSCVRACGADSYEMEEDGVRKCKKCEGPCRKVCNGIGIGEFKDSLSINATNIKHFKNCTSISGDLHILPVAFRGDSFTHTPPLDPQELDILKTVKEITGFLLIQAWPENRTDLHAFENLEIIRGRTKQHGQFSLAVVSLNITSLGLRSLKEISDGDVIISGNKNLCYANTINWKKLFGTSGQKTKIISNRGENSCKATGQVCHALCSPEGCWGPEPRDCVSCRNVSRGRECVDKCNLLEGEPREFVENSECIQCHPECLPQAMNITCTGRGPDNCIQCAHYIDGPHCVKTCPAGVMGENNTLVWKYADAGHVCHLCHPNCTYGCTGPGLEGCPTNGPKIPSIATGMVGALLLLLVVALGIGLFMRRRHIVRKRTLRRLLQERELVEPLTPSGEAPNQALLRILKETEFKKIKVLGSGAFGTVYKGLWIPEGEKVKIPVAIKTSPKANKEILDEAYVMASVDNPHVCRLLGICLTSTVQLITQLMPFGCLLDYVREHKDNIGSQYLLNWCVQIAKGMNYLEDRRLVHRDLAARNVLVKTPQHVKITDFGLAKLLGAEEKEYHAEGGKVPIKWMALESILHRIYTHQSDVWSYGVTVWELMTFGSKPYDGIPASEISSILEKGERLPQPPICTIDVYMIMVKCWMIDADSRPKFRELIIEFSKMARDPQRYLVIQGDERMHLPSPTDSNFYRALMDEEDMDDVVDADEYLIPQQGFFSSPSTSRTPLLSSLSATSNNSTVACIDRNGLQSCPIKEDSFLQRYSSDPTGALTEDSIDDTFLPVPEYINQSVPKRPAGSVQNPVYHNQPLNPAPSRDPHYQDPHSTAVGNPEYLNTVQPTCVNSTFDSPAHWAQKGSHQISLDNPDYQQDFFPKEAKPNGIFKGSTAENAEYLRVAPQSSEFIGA
T2 sequence (Q96SW2 whole entry partner): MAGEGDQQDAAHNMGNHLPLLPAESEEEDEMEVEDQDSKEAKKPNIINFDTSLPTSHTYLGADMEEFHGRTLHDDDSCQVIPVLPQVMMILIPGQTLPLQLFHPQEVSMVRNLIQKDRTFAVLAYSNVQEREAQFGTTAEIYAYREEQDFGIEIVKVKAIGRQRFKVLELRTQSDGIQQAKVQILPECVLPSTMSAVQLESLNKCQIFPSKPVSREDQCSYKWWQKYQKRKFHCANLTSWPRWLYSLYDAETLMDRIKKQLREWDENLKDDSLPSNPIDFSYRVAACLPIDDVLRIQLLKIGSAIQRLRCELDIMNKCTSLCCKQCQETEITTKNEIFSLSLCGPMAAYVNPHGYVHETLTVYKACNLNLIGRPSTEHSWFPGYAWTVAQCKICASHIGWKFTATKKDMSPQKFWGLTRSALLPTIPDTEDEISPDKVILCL
Experimental: After 16 h treatment, add 100 μl 1×lysis buffer to each well; seal the plate and incubate 1 hour at room temperature on a plate shaker; Once the cells are lysed, 16 μl diluted (2 μL to 14 μl 1× lysisi buffer) cell lysate are transferred to a PE 384-well HTRF detection plate; 4 μL of pre-mixed HTRF antibodies are added to each well; Cover the plate with a plate sealer, spin 1000 rpm for 1 min, Incubate overnight at room temperature; Read on BMG PheraStar with HTRF protocol (337 nm-665 nm-620 nm).
as §1, §2

T1 sequence (P00533 25-1210 T790M/L858R): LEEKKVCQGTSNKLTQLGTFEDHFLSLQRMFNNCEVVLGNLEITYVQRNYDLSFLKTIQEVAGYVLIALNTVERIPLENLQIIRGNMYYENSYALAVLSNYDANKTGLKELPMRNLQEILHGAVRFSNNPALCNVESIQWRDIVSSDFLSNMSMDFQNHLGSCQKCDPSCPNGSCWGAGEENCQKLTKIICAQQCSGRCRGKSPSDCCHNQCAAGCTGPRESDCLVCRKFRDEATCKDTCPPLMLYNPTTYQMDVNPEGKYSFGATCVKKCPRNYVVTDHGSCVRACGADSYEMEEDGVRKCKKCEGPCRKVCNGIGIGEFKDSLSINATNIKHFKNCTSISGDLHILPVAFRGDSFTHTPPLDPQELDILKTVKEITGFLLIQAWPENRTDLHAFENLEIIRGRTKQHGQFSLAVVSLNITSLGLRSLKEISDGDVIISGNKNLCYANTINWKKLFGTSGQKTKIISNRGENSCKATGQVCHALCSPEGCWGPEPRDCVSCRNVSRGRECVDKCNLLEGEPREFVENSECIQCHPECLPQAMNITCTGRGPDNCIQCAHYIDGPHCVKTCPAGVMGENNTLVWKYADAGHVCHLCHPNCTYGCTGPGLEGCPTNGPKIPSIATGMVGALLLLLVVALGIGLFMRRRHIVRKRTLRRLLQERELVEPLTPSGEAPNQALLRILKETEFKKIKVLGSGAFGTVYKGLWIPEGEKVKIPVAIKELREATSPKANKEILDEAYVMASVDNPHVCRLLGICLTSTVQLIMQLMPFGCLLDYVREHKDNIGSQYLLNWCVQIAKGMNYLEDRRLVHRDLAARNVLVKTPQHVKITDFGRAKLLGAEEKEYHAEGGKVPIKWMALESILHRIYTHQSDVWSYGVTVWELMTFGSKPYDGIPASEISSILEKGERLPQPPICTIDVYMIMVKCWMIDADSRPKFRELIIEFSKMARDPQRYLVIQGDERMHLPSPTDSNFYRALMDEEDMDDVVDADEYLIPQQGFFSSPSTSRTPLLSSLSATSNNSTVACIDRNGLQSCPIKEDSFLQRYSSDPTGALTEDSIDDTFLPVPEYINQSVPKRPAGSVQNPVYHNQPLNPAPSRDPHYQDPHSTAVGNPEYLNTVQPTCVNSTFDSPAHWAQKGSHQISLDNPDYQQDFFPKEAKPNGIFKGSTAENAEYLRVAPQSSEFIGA

| Structure (SMILES) | DC50 (EGFR [1]) | DC50 (EGFR [2]) |
| --- | --- | --- |
| COc1cc(N2CCC(N3CCN(CCCC4CN(c5ccc6c(c5)C(=O)N(C5CCC(=O)NC5=O)C6=O)C4)CC3)CC2)c(C)cc1Nc1ncc(Br)c(Nc2cccc3c2N(S(C)(=O)=O)CC3)n1 (centres unmarked) [Example 44, 5-(3-(3-(4-(1-(4-((5-bromo-4-((1-(methylsulfonyl)indolin-7-yl)amino)pyrimidin-2-yl)amino)-5-methoxy-2-methylphenyl)piperidin-4-yl)piperazin-1-yl)propyl)azetidin-1-yl)-2-(2,6-dioxopiperidin-3-yl)isoindoline-1,3-done] | 10.9 nM | 4.6 nM |
| CS(=O)(=O)N1CCc2cccc(Nc3nc(Nc4ccc(N5CCC(N6CCN(CC[C@@H]7CCN(c8ccc(C9CCC(=O)NC9=O)cc8)C7)CC6)CC5)c(F)c4)nc4[nH]ccc34)c21 (stereo partly drawn) [Example 64, 3-(4-((R)-3-(2-(4-(1-(2-fluoro-4-((4-((1-(methylsulfonyl)indolin-7-yl)amino)-7H-pyrrolo[2,3-d]pyrimidin-2-yl)amino)phenyl)piperidin-4-yl)piperazin-1-yl)ethyl)pyrrolidin-1-yl)phenyl)piperidine-2,6-dione] | 6.1 nM | 156 nM |
| CS(=O)(=O)N1CCc2cccc(Nc3nc(Nc4ccc(N5CCC(N6CCN(CCc7ccc(NC8CCC(=O)NC8=O)cc7)CC6)CC5)c(F)c4)nc4[nH]ccc34)c21 (centres unmarked) [Example 66, 3-((4-(2-(4-(1-(2-fluoro-4-((4-((1-(methylsulfonyl)indolin-7-yl)amino)-7H-pyrrolo[2,3-d]pyrimidin-2-yl)amino)phenyl)piperidin-4-yl)piperazin-1-yl)ethyl)phenyl)amino)piperidine-2,6-dione] | 7.1 nM | 18 nM |
| CS(=O)(=O)N1CCc2cccc(Nc3nc(Nc4ccc(N5CCC(N6CCN(CCCC7CN(c8ccc9c(c8)C(=O)N(C8CCC(=O)NC8=O)C9=O)C7)CC6)CC5)c(F)c4)ncc3Cl)c21 (centres unmarked) [Example 78, 5-(3-(3-(4-(1-(4-((5-chloro-4-((1-(methylsulfonyl)indolin-7-yl)amino)pyrimidin-2-yl)amino)-2-fluorophenyl)piperidin-4-yl)piperazin-1-yl)propyl)azetidin-1-yl)-2-(2,6-dioxopiperidin-3-yl)isoindoline-1,3-dione] | 5.5 nM | 4.6 nM |
| CN(CCC1CCN(c2ccc3c(c2)C(=O)N(C2CCC(=O)NC2=O)C3=O)CC1)C1CCN(c2ccc(Nc3ncc(Cl)c(Nc4cccc5c4N(S(C)(=O)=O)CC5)n3)c3c2CCO3)CC1 (centres unmarked) [Example 47, 5-(4-(2-((1-(7-((5-chloro-4-((1-(methylsulfonyl)indolin-7-yl)amino)pyrimidin-2-yl)amino)-2,3-dihydrobenzofuran-4-yl)piperidin-4-yl)(methyl)amino)ethyl)piperidin-1-yl)-2-(2,6-dioxopiperidin-3-yl)isoindoline-1,3-dione] | 21.4 nM | 13.8 nM |
| CN(CCc1ccc(C2CCC(=O)NC2=O)c(F)c1)C1CCN(c2ccc(Nc3ncc(Cl)c(Nc4cccc5c4N(S(C)(=O)=O)CC5)n3)c3c2CCO3)CC1 (centres unmarked) [Example 48, 3-(4-(2-((1-(7-((5-chloro-4-((1-(methylsulfonyl)indolin-7-yl)amino)pyrimidin-2-yl)amino)-2,3-dihydrobenzofuran-4-yl)piperidin-4-yl)(methyl)amino)ethyl)-2-fluorophenyl)piperidine-2,6-dione] | > 10000 nM | 51.8 nM |
| CS(=O)(=O)N1CCc2cccc(Nc3nc(Nc4ccc(N5CCC(N6CCN(CCCC7CN(c8ccc9c(c8)C(=O)N(C8CCC(=O)NC8=O)C9=O)C7)CC6)CC5)c5c4OCC5)ncc3Cl)c21 (centres unmarked) [Example 55, 5-(3-(3-(4-(1-(7-((5-chloro-4-((1-(methylsulfonyl)indolin-7-yl)amino)pyrimidin-2-yl)amino)-2,3-dihydrobenzofuran-4-yl)piperidin-4-yl)piperazin-1-yl)propyl)azetidin-1-yl)-2-(2,6-dioxopiperidin-3-yl)isoindoline-1,3-dione] | 9.6 nM | 11.9 nM |
